# Assay results taken from patent US8088815B2, “Spiroindolinone pyrrolidines” (Hoffman-La Roche Inc., priority 2009, dated 2012).
# Target: interaction between p53 and MDM2 proteins (Homo sapiens, UniProt Q00987)
# Test: HTRF assay of inhibition of the p53-MDM2 interaction (GST-MDM2 / biotinylated p53 peptide)
# Type: binding
# Details: recombinant GST-tagged MDM2 and biotinylated p53 peptide, bsa:0.02%
# Description: The ability of the compounds to inhibit the interaction between p53 and MDM2 proteins was measured by an HTRF (homogeneous time-resolved fluorescence) assay in which recombinant GST-tagged MDM2 binds to a peptide that resembles the MDM2-interacting region of p53. Binding of GST-MDM2 protein and p53-peptide (biotinylated on its N-terminal end) is registered by the FRET (fluorescence resonance energy transfer) between Europium (Eu)-labeled anti-GST antibody and streptavidin-conjugated Allophycocyanin (APC).
# Add 10 uL diluted compounds (1:5 dilution in reaction buffer) to each well, mix by shaking. Add 20 uL biotinylated p53 peptide (180 nM working solution) in reaction buffer to each well and mix on shaker. Incubate at 37° C. for 1 h. Add 20 uL streptavidin-APC and Eu-anti-GST antibody mixture (6 nM Eu-anti-GST and 60 nM streptavidin-APC working solution) in TBS buffer with 0.2% BSA, shake at room temperature for 30 minutes and read using a TRF-capable plate reader at
# 665 and 615 nm (Victor 5, Perkin ElmerWallac). If not specified, the reagents were purchased from Sigma Chemical Co.
# interaction between p53 and MDM2 proteins, sequence (Q00987 whole entry): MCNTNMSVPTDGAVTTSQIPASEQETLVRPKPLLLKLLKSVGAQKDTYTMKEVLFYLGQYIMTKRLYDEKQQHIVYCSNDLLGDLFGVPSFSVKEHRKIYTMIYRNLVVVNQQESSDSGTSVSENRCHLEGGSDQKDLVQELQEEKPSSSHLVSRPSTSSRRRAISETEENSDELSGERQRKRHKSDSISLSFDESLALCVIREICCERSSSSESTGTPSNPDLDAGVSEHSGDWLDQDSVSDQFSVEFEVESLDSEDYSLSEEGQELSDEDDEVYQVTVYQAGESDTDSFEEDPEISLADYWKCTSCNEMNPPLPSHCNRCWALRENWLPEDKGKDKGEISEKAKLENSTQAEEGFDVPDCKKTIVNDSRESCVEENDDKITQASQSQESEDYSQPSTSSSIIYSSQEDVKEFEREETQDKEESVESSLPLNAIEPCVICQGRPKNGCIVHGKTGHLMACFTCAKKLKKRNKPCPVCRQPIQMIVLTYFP
row,IC50 [nM],Structure (SMILES)
1,> 10000,"CC(C)(C)C[C@@H]1N[C@@H](C(=O)Nc2ccc(S(C)(=O)=O)cc2F)[C@H](c2cccc(Cl)c2F)[C@]12C(=O)Nc1cc(Cl)ccc12 (racemic) [Example 37, rac-(2′S,3′R,4′S,5′R)-6-chloro-4′-(3-chloro-2-fluoro-phenyl)-2′-(2,2-dimethyl-propyl)-2-oxo-1,2-dihydro-spiro[indole-3,3′-pyrrolidine]-5′-carboxylic acid (2-fluoro-4-methanesulfonyl-phenyl)-amide]"
2,14,"CC(C)(C)C[C@@H]1N[C@@H](C(=O)Nc2ccc(C(=O)CO)cc2)[C@H](c2cccc(Cl)c2F)[C@]12C(=O)Nc1cc(Cl)ccc12 (racemic) [Example 42, rac-(2′S,3′R,4′S,5′R)-6-chloro-4′-(3-chloro-2-fluoro-phenyl)-2′-(2,2-dimethyl-propyl)-2-oxo-1,2-dihydro-spiro[indole-3,3′-pyrrolidine]-5′-carboxylic acid [4-(2-hydroxy-acetyl)-phenyl]-amide]"
3,10,"CC(C)(C)C[C@@H]1N[C@@H](C(=O)Nc2ccn(CCO)n2)[C@H](c2cccc(Cl)c2F)[C@]12C(=O)Nc1cc(Cl)ccc12 (racemic) [Example 44, rac-(2′S,3′R,4′S,5′R)-6-chloro-4′-(3-chloro-2-fluoro-phenyl)-2′-(2,2-dimethyl-propyl)-2-oxo-1,2-dihydro-spiro[indole-3,3′-pyrrolidine]-5′-carboxylic acid [1-(2-hydroxy-ethyl)-1H-pyrazol-3-yl]-amide]"
4,16,"CC(C)(C)C[C@@H]1N[C@@H](C(=O)Nc2ccc(C#N)cc2)[C@H](c2cccc(Cl)c2F)[C@]12C(=O)Nc1cc(Cl)c(F)cc12 (racemic) [Example 48, rac-(2′S,3′R,4′S,5′R)-6-chloro-4′-(3-chloro-2-fluoro-phenyl)-2′-(2,2-dimethyl-propyl)-5-fluoro-2-oxo-1,2-dihydro-spiro[indole-3,3′-pyrrolidine]-5′-carboxylic acid (4-cyano-phenyl)-amide]"
5,13,"CC(C)(C)C[C@@H]1N[C@@H](C(=O)Nc2ccc(C(N)=O)cc2)[C@H](c2cccc(Cl)c2F)[C@]12C(=O)Nc1cc(Cl)c(F)cc12 (racemic) [Example 49, rac-(2′S,3′R,4′S,5′R)-6-chloro-4′-(3-chloro-2-fluoro-phenyl)-2′-(2,2-dimethyl-propyl)-5-fluoro-2-oxo-1,2-dihydro-spiro[indole-3,3′-pyrrolidine]-5′-carboxylic acid (4-carbamoyl-phenyl)-amide]"
6,20,"CC(C)(C)C[C@@H]1N[C@@H](C(=O)Nc2ccc(I)cc2F)[C@H](c2cccc(Cl)c2F)[C@]12C(=O)Nc1cc(Cl)ccc12 (racemic) [Example 51, rac-(2′S,3′R,4′S,5′R)-6-chloro-4′-(3-chloro-2-fluoro-phenyl)-2′-(2,2-dimethyl-propyl)-2-oxo-1,2-dihydro-spiro[indole-3,3′-pyrrolidine]-5′-carboxylic acid (2-fluoro-4-iodo-phenyl)-amide]"
7,12,"CC(C)(C)C[C@@H]1N[C@@H](C(=O)Nc2ccc(C#N)cc2F)[C@H](c2cccc(Cl)c2F)[C@]12C(=O)Nc1cc(Cl)ccc12 (racemic) [Example 52, rac-(2′S,3′R,4′S,5′R)-6-chloro-4′-(3-chloro-2-fluoro-phenyl)-2′-(2,2-dimethyl-propyl)-2-oxo-1,2-dihydro-spiro[indole-3,3′-pyrrolidine]-5′-carboxylic acid (4-cyano-2-fluoro-phenyl)-amide]"
8,11,"CC(C)(C)C[C@@H]1N[C@@H](C(=O)Nc2ccc(C(N)=O)cc2F)[C@H](c2cccc(Cl)c2F)[C@]12C(=O)Nc1cc(Cl)ccc12 (racemic) [Example 53, rac-(2′S,3′R,4′S,5′R)-6-chloro-4′-(3-chloro-2-fluoro-phenyl)-2′-(2,2-dimethyl-propyl)-2-oxo-1,2-dihydro-spiro[indole-3,3′-pyrrolidine]-5′-carboxylic acid (4-carbamoyl-2-fluoro-phenyl)-amide]"
9,13,"CC(C)(C)C[C@@H]1N[C@@H](C(=O)Nc2ccn(CC(C)(C)O)n2)[C@H](c2cccc(Cl)c2F)[C@]12C(=O)Nc1cc(Cl)ccc12 (racemic) [Example 55, rac-(2′S,3′R,4′S,5′R)-6-chloro-4′-(3-chloro-2-fluoro-phenyl)-2′-(2,2-dimethyl-propyl)-2-oxo-1,2-dihydro-spiro[indole-3,3′-pyrrolidine]-5′-carboxylic acid [1-(2-hydroxy-2-methyl-propyl)-1H-pyrazol-3-yl]-amide trifluoroacetic acid]"
10,19,"CC(C)(C)C[C@@H]1N[C@@H](C(=O)Nc2ccc(I)cc2)[C@H](c2cccc(Cl)c2F)[C@]12C(=O)Nc1cc(Cl)ccc12 (racemic) [Example 56, rac-(2′S,3′R,4′S,5′R)-6-chloro-4′-(3-chloro-2-fluoro-phenyl)-2′-(2,2-dimethyl-propyl)-2-oxo-1,2-dihydro-spiro[indole-3,3′-pyrrolidine]-5′-carboxylic acid (4-iodo-phenyl)-amide]"
11,23,"COc1cc(C#N)ccc1NC(=O)[C@@H]1N[C@@H](CC(C)(C)C)[C@@]2(C(=O)Nc3cc(Cl)ccc32)[C@H]1c1cccc(Cl)c1F (racemic) [Example 58, rac-(2′S,3′R,4′S,5′R)-6-chloro-4′-(3-chloro-2-fluoro-phenyl)-2′-(2,2-dimethyl-propyl)-2-oxo-1,2-dihydro-spiro[indole-3,3′-pyrrolidine]-5′-carboxylic acid (4-cyano-2-methoxy-phenyl)-amide]"
12,14,"COc1cc(C(N)=O)ccc1NC(=O)[C@@H]1N[C@@H](CC(C)(C)C)[C@@]2(C(=O)Nc3cc(Cl)ccc32)[C@H]1c1cccc(Cl)c1F (racemic) [Example 59, rac-(2′S,3′R,4′S,5′R)-6-chloro-4′-(3-chloro-2-fluoro-phenyl)-2′-(2,2-dimethyl-propyl)-2-oxo-1,2-dihydro-spiro[indole-3,3′-pyrrolidine]-5′-carboxylic acid (4-carbamoyl-2-methoxy-phenyl)-amide]"
13,34,"CC(C)(C)C[C@@H]1N[C@@H](C(=O)Nc2ccc(C#N)cc2)[C@H](c2cccc(Cl)c2)[C@]12C(=O)Nc1cc(Cl)ccc12 (racemic) [Example 64, rac-(2′S,3′R,4′R,5′R)-6-chloro-4′-(3-chloro-phenyl)-2′-(2,2-dimethyl-propyl)-2-oxo-1,2-dihydro-spiro[indole-3,3′-pyrrolidine]-5′-carboxylic acid (4-cyano-phenyl)-amide]"
14,9,"CC(C)(C)C[C@@H]1N[C@@H](C(=O)Nc2ccc(C(N)=O)cc2)[C@H](c2cccc(Cl)c2)[C@]12C(=O)Nc1cc(Cl)ccc12 (racemic) [Example 65A, rac-(2′S,3′R,4′R,5′R)-6-chloro-4′-(3-chloro-phenyl)-2′-(2,2-dimethyl-propyl)-2-oxo-1,2-dihydro-spiro[indole-3,3′-pyrrolidine]-5′-carboxylic acid (4-carbamoyl-phenyl)-amide]"
15,14,"COc1cc(C#N)ccc1NC(=O)[C@@H]1N[C@@H](CC(C)(C)C)[C@@]2(C(=O)Nc3cc(Cl)ccc32)[C@H]1c1cccc(Cl)c1 (racemic) [Example 66, rac-(2′S,3′R,4′R,5′R)-6-chloro-4′-(3-chloro-phenyl)-2′-(2,2-dimethyl-propyl)-2-oxo-1,2-dihydro-spiro[indole-3,3′-pyrrolidine]-5′-carboxylic acid (4-cyano-2-methoxy-phenyl)-amide]"
16,10,"COc1cc(C(N)=O)ccc1NC(=O)[C@@H]1N[C@@H](CC(C)(C)C)[C@@]2(C(=O)Nc3cc(Cl)ccc32)[C@H]1c1cccc(Cl)c1 (racemic) [Example 67, rac-(2′S,3′R,4′R,5′R)-6-chloro-4′-(3-chloro-phenyl)-2′-(2,2-dimethyl-propyl)-2-oxo-1,2-dihydro-spiro[indole-3,3′-pyrrolidine]-5′-carboxylic acid (4-carbamoyl-2-methoxy-phenyl)-amide]"
17,22,"CC(C)(C)C[C@@H]1N[C@@H](C(=O)Nc2ccc(C#N)cc2)[C@H](c2cccc(Cl)c2F)[C@]12C(=O)Nc1cc(Cl)cc(F)c12 (racemic) [Example 72, rac-(2′S,3′R,4′S,5′R)-6-chloro-4′-(3-chloro-2-fluoro-phenyl)-2′-(2,2-dimethyl-propyl)-4-fluoro-2-oxo-1,2-dihydro-spiro[indole-3,3′-pyrrolidine]-5′-carboxylic acid (4-cyano-phenyl)-amide]"
18,11,"CC(C)(C)C[C@@H]1N[C@@H](C(=O)Nc2ccc(C(N)=O)cc2)[C@H](c2cccc(Cl)c2F)[C@]12C(=O)Nc1cc(Cl)cc(F)c12 (racemic) [Example 73, rac-(2′S,3′R,4′S,5′R)-6-chloro-4′-(3-chloro-2-fluoro-phenyl)-2′-(2,2-dimethyl-propyl)-4-fluoro-2-oxo-1,2-dihydro-spiro[indole-3,3′-pyrrolidine]-5′-carboxylic acid (4-carbamoyl-phenyl)-amide]"
19,20,"COc1cc(C#N)ccc1NC(=O)[C@@H]1N[C@@H](CC(C)(C)C)[C@@]2(C(=O)Nc3cc(Cl)cc(F)c32)[C@H]1c1cccc(Cl)c1F (racemic) [Example 75, rac-(2′S,3′R,4′S,5′R)-6-chloro-4′-(3-chloro-2-fluoro-phenyl)-2′-(2,2-dimethyl-propyl)-4-fluoro-2-oxo-1,2-dihydro-spiro[indole-3,3′-pyrrolidine]-5′-carboxylic acid (4-cyano-2-methoxy-phenyl)-amide]"
